US20140206682A1, “COMPOUNDS AND COMPOSITIONS AS PDGFR KINASE INHIBITORS” (NOVARTIS PHARMACEUTICALS UK LIMITED, priority 2011, published 2014)

The compounds below were run on PDGFR (assay: Rat A10 cell proliferation assay). Conditions: Table 1; Rat A10 cells, recombinant rat PDGF-BB, CellTiter-Glo after 68 hours.
Assay type: cell-based
Experimental: Compounds of Formula (I) provided herein were assayed to measure their capacity to inhibit c-kit and PDGFR kinases using the appropriate assay described below: c-Kit inhibition was evaluated using the Mo7e cell proliferation assay, and PDGFR inhibition was evaluated using the Rat A10 cell proliferation assay and the Human TG/HA-VSMC cell proliferation assay.
Rat A10 cells (ATCC) were resuspended in DMEM supplemented with 1% FBS and 10 ng/mL recombinant rat PDGF-BB at 20,000 cells/mL. The cells were aliquoted into 384 well plates at 50 μL/well and incubated for 4 hours at 37° C. 0.5 μL of test compound 3-fold serially diluted in DMSO was added to each well. The plates were returned to the incubator for a further 68 hours. 25 μL of CellTiter-Glo (Promega) was added to each well and the plates were incubated on the bench for 15 minutes. Luminescence was then read using a CLIPR CCD camera (Molecular Devices).

In order of falling IC50:
1. O=C(N[C@@H]1c2ccccc2OC[C@@H]1O)c1ccc(F)c(NC(=O)c2cnc3ccccn23)c1 (racemic) [F34, N-(2-fluoro-5-{[(3R,4R)-3-hydroxy-3,4-dihydro-2H-1-benzopyran-4-yl]carbamoyl}phenyl)imidazo[1,2-a]pyridine-3-carboxamide]  0.195 µM
2. O=C(NC1Cc2ccccc2C1O)c1ccc(F)c(NC(=O)c2cnc3cc(Br)ccn23)c1 (stereo not shown) [F10, 7-bromo-N-{2-fluoro-5-[(1-hydroxy-2,3-dihydro-1H-inden-2-yl)carbamoyl]phenyl}imidazo[1,2-a]pyridine-3-carboxamide]  0.13 µM
3. Cc1ccc2ncc(C(=O)Nc3cc(C(=O)N[C@@H]4c5ccc(F)cc5C[C@@H]4O)ccc3F)n2c1 [F28, N-(2-fluoro-5-{[(1R,2S)-5-fluoro-2-hydroxy-2,3-dihydro-1H-inden-1-yl]carbamoyl}phenyl)-6-methylimidazo[1,2-a]pyridine-3-carboxamide]  0.129 µM
4. O=C(N[C@@H]1c2cc(F)ccc2C[C@@H]1O)c1ccc(F)c(NC(=O)c2cnc3ccc(F)cn23)c1 [F113, 6-fluoro-N-(2-fluoro-5-{[(1R,2S)-6-fluoro-2-hydroxy-2,3-dihydro-1H-inden-1-yl]carbamoyl}phenyl)imidazo[1,2-a]pyridine-3-carboxamide]  0.113 µM
5. O=C(N[C@@H]1c2ccccc2C[C@@H]1O)c1ccc(F)c(NC(=O)c2cnc3cc(F)ccn23)c1 [F18, 7-fluoro-N-(2-fluoro-5-{[(1R,2S)-2-hydroxy-2,3-dihydro-1H-inden-1-yl]carbamoyl}phenyl)imidazo[1,2-a]pyridine-3-carboxamide]  0.086 µM
6. Cc1ccc(C(=O)NC(CO)Cc2ccccc2)cc1NC(=O)c1cnc2ccccn12 (stereo not shown) [F1, N-{5-[(1-hydroxy-3-phenylpropan-2-yl)carbamoyl]-2-methylphenyl}imidazo[1,2-a]pyridine-3-carboxamide]  0.082 µM
7. COc1ccc2ncc(C(=O)Nc3cc(C(=O)N[C@@H]4c5ccccc5C[C@@H]4O)ccc3F)n2c1 [F19, N-(2-fluoro-5-{[(1R,2S)-2-hydroxy-2,3-dihydro-1H-inden-1-yl]carbamoyl}phenyl)-6-methoxyimidazo[1,2-a]pyridine-3-carboxamide]  0.082 µM
8. O=C(N[C@@H]1CCCCC[C@H]1O)c1ccc(F)c(NC(=O)c2cnc3ccccn23)c1 [F12, N-(2-fluoro-5-{[(1R,2R)-2-hydroxycycloheptyl]carbamoyl}phenyl)imidazo[1,2-a]pyridine-3-carboxamide]  0.079 µM
9. O=C(N[C@H](CO)c1ccccc1)c1ccc(F)c(NC(=O)c2cnc3ccccn23)c1 [F112, N-(2-fluoro-5-{[(1S)-2-hydroxy-1-phenylethyl]carbamoyl}phenyl)imidazo[1,2-a]pyridine-3-carboxamide]  0.076 µM
10. Cc1ccc2ncc(C(=O)Nc3cc(C(=O)N[C@H]4CCCC[C@@H]4O)ccc3F)n2c1 [F114, N-(2-fluoro-5-{[(1S,2S)-2-hydroxycyclohexyl]carbamoyl}phenyl)-6-methylimidazo[1,2-a]pyridine-3-carboxamide]  0.07 µM
11. Cn1nccc1-c1ccn2c(C(=O)Nc3cc(C(=O)N[C@@H]4Cc5ccccc5[C@@H]4O)ccc3F)cnc2c1 [F15, N-(2-fluoro-5-{[(1S,2R)-1-hydroxy-2,3-dihydro-1H-inden-2-yl]carbamoyl}phenyl)-7-(1-methyl-1H-pyrazol-5-yl)imidazo[1,2-a]pyridine-3-carboxamide]  0.044 µM
12. O=C(N[C@@H](CO)[C@@H](O)c1ccccc1)c1ccc(F)c(NC(=O)c2cnc3ccccn23)c1 [F123, N-(5-{[(1S,2S)-1,3-dihydroxy-1-phenylpropan-2-yl]carbamoyl}-2-fluorophenyl)imidazo[1,2-a]pyridine-3-carboxamide]  0.044 µM
13. O=C(N[C@H]1c2ccccc2C[C@@H]1O)c1ccc(F)c(NC(=O)c2cnc3ccccn23)c1 [F8, N-(2-fluoro-5-{[(1S,2S)-2-hydroxy-2,3-dihydro-1H-inden-1-yl]carbamoyl}phenyl)imidazo[1,2-a]pyridine-3-carboxamide]  0.038 µM
14. Cc1ccc(C(=O)NCc2ccccc2N2CCCC(O)C2)cc1NC(=O)c1cnc2ccccn12 (stereo not shown) [F30, N-[5-({[2-(3-hydroxypiperidin-1-yl)phenyl]methyl}carbamoyl)-2-methylphenyl]imidazo[1,2-a]pyridine-3-carboxamide]  0.027 µM
15. O=C(NC[C@@H](O)c1ccc(Cl)cc1)c1ccc(F)c(NC(=O)c2cnc3ccccn23)c1 [F121, N-(5-{[(2S)-2-(4-chlorophenyl)-2-hydroxyethyl]carbamoyl}-2-fluorophenyl)imidazo[1,2-a]pyridine-3-carboxamide]  0.013 µM

Same assay, conditions: Table 2; Rat A10 cells, recombinant rat PDGF-BB, CellTiter-Glo after 68 hours

`O=C(N[C@@H]1c2ccccc2C[C@@H]1O)c1ccc(F)c(NC(=O)c2cnc3ccc(COCC(F)(F)F)cn23)c1` (stereo in doubt) [F61, N-(2-fluoro-5-{[(1R,2S)-2-hydroxy-2,3-dihydro-1H-inden-1-yl]carbamoyl}phenyl)-6-[(2,2,2-trifluoroethoxy)methyl]imidazo[1,2-a]pyridine-3-carboxamide] and `O=C(N[C@@H]1c2ccccc2C[C@@H]1O)c1ccc(F)c(NC(=O)c2cnc3ccc(C(F)(F)F)cn23)c1` (stereo in doubt) [F58, N-(2-fluoro-5-{[(1R,2S)-2-hydroxy-2,3-dihydro-1H-inden-1-yl]carbamoyl}phenyl)-6-(trifluoromethyl)imidazo[1,2-a]pyridine-3-carboxamide] are within 1.5-fold of each other in IC50: 0.618 µM for the first, 0.584 µM for the second.

Going from `CCC[C@@H](CO)NC(=O)c1cccc(NC(=O)c2cnc3ccccn23)c1` [F57, N-(3-{[(2S)-1-hydroxypentan-2-yl]carbamoyl}phenyl)imidazo[1,2-a]pyridine-3-carboxamide] to `C[C@@H](CO)NC(=O)c1cccc(NC(=O)c2cnc3ccccn23)c1` [F78, N-(3-{[(2S)-1-hydroxypropan-2-yl]carbamoyl}phenyl)imidazo[1,2-a]pyridine-3-carboxamide], the IC50 rises from 0.522 µM to over 10 µM. The first is the more potent here.

Going from `O=C(NCC1(O)CCCC1)c1cccc(NC(=O)c2cnc3ccccn23)c1` [F69] to `O=C(NCC1(O)CCC1)c1cccc(NC(=O)c2cnc3ccccn23)c1` [F73, N-(3-{[(1-hydroxycyclobutyl)methyl]carbamoyl}phenyl)imidazo[1,2-a]pyridine-3-carboxamide], the IC50 rises from 1.85 µM to 3.27 µM (1.8-fold). The first is the more potent here.

First: O=C(N[C@H]1CCCCC1O)c1cccc(NC(=O)c2cnc3ccccn23)c1 (stereo in doubt) [F67, N-(3-{[(1S,2S)-2-hydroxycyclohexyl]carbamoyl}phenyl)imidazo[1,2-a]pyridine-3-carboxamide]
Second: O=C(N[C@@H]1c2ccccc2C[C@@H]1O)c1cccc(NC(=O)c2cnc3ccccn23)c1 (stereo in doubt) [F47, N-(3-{[(1R,2S)-2-hydroxy-2,3-dihydro-1H-inden-1-yl]carbamoyl}phenyl)imidazo[1,2-a]pyridine-3-carboxamide]
The IC50 of the first is 3.8-fold higher: 1.36 µM for the first, 0.356 µM for the second. The second is the more potent here.

Going from `Cc1ccc2ncc(C(=O)Nc3cc(C(=O)N[C@@H]4c5cc(F)ccc5C[C@@H]4O)c(C)cc3F)n2c1` [F89, N-(2-fluoro-5-{[(1R,2S)-6-fluoro-2-hydroxy-2,3-dihydro-1H-inden-1-yl]carbamoyl}-4-methylphenyl)-6-methylimidazo[1,2-a]pyridine-3-carboxamide] to `Cc1ccc2ncc(C(=O)Nc3cc(C(=O)N[C@@H]4c5ccccc5C[C@@H]4O)c(Cl)cc3F)n2c1` [F85, N-(4-chloro-2-fluoro-5-{[(1R,2S)-2-hydroxy-2,3-dihydro-1H-inden-1-yl]carbamoyl}phenyl)-6-methylimidazo[1,2-a]pyridine-3-carboxamide], the IC50 rises from 1.81 µM to 4.02 µM (2.2-fold).

`C[C@@H]1CC[C@H](O)[C@H](C)N1CCNC(=O)c1ccc(F)c(NC(=O)c2cnc3cc(-c4ccnn4C)ccn23)c1` [F109, N-[2-fluoro-5-({2-[(2S,3S,6R)-3-hydroxy-2,6-dimethylpiperidin-1-yl]ethyl}carbamoyl)phenyl]-7-(1-methyl-1H-pyrazol-5-yl)imidazo[1,2-a]pyridine-3-carboxamide] and `O=C(N[C@@H]1c2ccccc2C[C@@H]1O)c1ccc(F)c(NC(=O)c2cnc3cc(C(F)(F)F)ccn23)c1` (stereo in doubt) [F40, N-(2-fluoro-5-{[(1R,2S)-2-hydroxy-2,3-dihydro-1H-inden-1-yl]carbamoyl}phenyl)-7-(trifluoromethyl)imidazo[1,2-a]pyridine-3-carboxamide] are within 1.5-fold of each other in IC50: 0.295 µM for the first, 0.261 µM for the second.

First: Cc1ccc2ncc(C(=O)Nc3cc(C(=O)N[C@@H]4c5ccc(Cl)cc5C[C@@H]4O)ccc3F)n2c1 [F84, N-(5-{[(1R,2S)-5-chloro-2-hydroxy-2,3-dihydro-1H-inden-1-yl]carbamoyl}-2-fluorophenyl)-6-methylimidazo[1,2-a]pyridine-3-carboxamide]
Second: CSc1ccc([C@H](O)[C@H](CO)NC(=O)c2ccc(F)c(NC(=O)c3cnc4ccccn34)c2)cc1 [F92, N-(5-{[(1S,2S)-1,3-dihydroxy-1-[4-(methylsulfanyl)phenyl]propan-2-yl]carbamoyl}-2-fluorophenyl)imidazo[1,2-a]pyridine-3-carboxamide]
The IC50 of the first is 2.1-fold higher: 0.584 µM for the first, 0.283 µM for the second.

Going from `O=C(NC[C@@H](O)c1ccccc1)c1ccc(F)c(NC(=O)c2cnc3ccccn23)c1` [F94, N-(2-fluoro-5-{[(2S)-2-hydroxy-2-phenylethyl]carbamoyl}phenyl)imidazo[1,2-a]pyridine-3-carboxamide] to `C[C@@]1(O)CCCC[C@H]1NC(=O)c1ccc(F)c(NC(=O)c2cnc3ccccn23)c1` [F103, N-(2-fluoro-5-{[(1R,2R)-2-hydroxy-2-methylcyclohexyl]carbamoyl}phenyl)imidazo[1,2-a]pyridine-3-carboxamide], the IC50 rises from 0.239 µM to over 10 µM. The first is the more potent here.
